Assays:
Assay in all cases: inhibition of amidolytic activity
Type in all cases: biochemical
Lys-gingipain = Lys-gingipain (Porphyromonas gingivalis, UniProt P72197)
HRgpA = HRgpA (Porphyromonas gingivalis, UniProt P28784)
RgpB = RgpB (Porphyromonas gingivalis, UniProt P95493)

Structure (SMILES) | Ki (Lys-gingipain) [µM] | Ki (HRgpA) [µM] | Ki (RgpB) [µM]
N=C(N)c1ccc(CC2CCCC(Cc3ccc(C(=N)N)cc3)C2=O)cc1 (stereo not drawn) [2,6-bis-(4-amidinobenzyl)-cyclohexanone] | > 1000 | 2.9 | 0.51
N=C(N)c1ccccc1 [benzamidine] | > 1000 | 536 | 277
N=C(N)c1ccc(OCCCCCOc2ccc(C(=N)N)cc2)cc1 [pentamidine] | > 1000 | 107 | 40.3

Reference: PMC3620930 (Molecular oral microbiology, 2012)
